Entries after “also recorded” stand apart in the source; their conditions may differ.
Key:
[1] = test system: RAW 264.7 mouse macrophages; experiment: PLA2 activity in conditioned medium (CM) of macrophages; assay type: cell-based; conditions: for order of effectiveness in reducing PLA2 activity of CM: ABC transporter inhibitors; for effect on PLA2 activity of CM: cells treated 4 hr, 17-hr CM, MK571 10-50 μM, CsA 2-50 μM, glyburide 0.1-2 mM, FIG. 12B; for effect on PLA2 activity detected in CM: exosome secretion inhibitors, DMA 5 and 12.5 nM, MBC 1 and 2 mM
[2] = test system: SKOV3 cells; experiment: Migration of SKOV3 cells to RAW 264.7 macrophage CM; assay type: cell-based, human; conditions: MK571 50 μM, glyburide 500 μM; FIG. 12C
Method: Referring now to FIG. 12C, CM from RAW 264.7 mouse macrophages was tested to determine if it would stimulate migration of SKOV3 cells. Migration of SKOV3 cells to 17-hr CM from untreated cells and cells treated with inhibitors (MK571, 50 μM, CsA, 10 μM, glyburide, 500 μM, and MAFP, 20 μM). ***, P<0.001 compared to CM. Data is mean and SD of three membranes; experiment repeated twice. An approximately 2-fold increase in migration with the CM compared to the medium control in the bottom well of the migration chamber was found. […] The addition of MAFP to the CM also abrogated migration.

[3] = test system: PLA2; assay type: biochemical, human
[4] = test system: PLA2; assay type: biochemical, human; conditions: for inhibition of ascitic PLA2 activity: cell-free human EOC ascites; for sensitivity of exosome-associated PLA2 activity to inhibitor: exosomes isolated from human ascites (ExoQuick)
[5] = target: sPLA2 (Apis mellifera, UniProt P00630); assay type: biochemical, bee
Chain of sPLA2 (P00630 34-167 limits assumed): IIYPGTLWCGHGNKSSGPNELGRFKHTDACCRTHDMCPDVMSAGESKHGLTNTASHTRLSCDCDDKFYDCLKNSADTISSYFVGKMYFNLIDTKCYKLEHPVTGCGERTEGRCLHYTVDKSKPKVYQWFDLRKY

[6] = test system: tumors; experiment: Tumors from control and BEL-treated mice; assay type: in vivo, mouse
Text: Referring now to FIGS. 3A, C and D, PLA2 activities measured from several mouse models for GYN diseases are presented.

[7] = test system: PLA2; assay type: biochemical, mouse
[8] = test system: SKOV3 cells; experiment: Cell migration assay, SKOV3 cells; assay type: cell-based, human; conditions: for effect on migration of SKOV3 cells induced by S1 fractions: inhibitor in lower chamber, two different S1 fractions, FIG. 10A; for stimulation of migration: SKOV3 cells, FIG. 10D
Method: In order to determine whether PLA2 and ATX were functionally involved in ascites-induced migration of EOC cells, the inhibitors MAFP, BEL, and HA130 were added to the lower chambers during the assay. […] The effect of each inhibitor was almost identical whether using S1, S3, or S4 fractions (FIG. 10 and data not shown).

[9] = test system: EOC metastasis; conditions: with low and non-toxic doses of paclitaxel; shown previously; cited from earlier work
[10] = test system: EOC cells; experiment: Ascites-stimulated proliferation, migration and invasion of EOC cells; conditions: S1 and S3 specimens
[11] = test system: SKOV3 cells; experiment: MTT proliferation assay, ascites-stimulated SKOV3 cells; assay type: cell-based, human; conditions: S1-stimulated; 10 μM Ki16425
[12] = test system: SKOV3 cells; experiment: Cell invasion assay; conditions: FIG. 10D
[13] = test system: EOC cells; conditions: has been shown (earlier work); cited from earlier work

For COc1ccc(Cl)cc1C(=O)NCCc1ccc(S(=O)(=O)NC(=O)NC2CCCCC2)cc1 [glyburide], the “order of effectiveness in reducing PLA2 activity of CM” value [1] was “MK571>glyburide>CsA”, the “effect on PLA2 activity of CM” value [1] was “dose-responsively reduced” and the “migration of SKOV3 cells to CM from inhibitor-treated macrophages” value [2] was “did not stimulate migration”.

For CCCCCCCCCCCCCCCCSC[C@H](COP(=O)(O)OCC[N+](C)(C)C)NC(=O)CCCCCCCCCCCCCCC [TAPC, thioether amide-PC], the “sensitivity of tumor PLA2 activity to inhibitor” value ([3]; frozen tumor sections, MAFP 40 μM, TAPC 250 μM, FIG. 7B) was “but not to an inhibitor of sPLA2”, the “inhibition of ascitic PLA2 activity” value [4] was “did not inhibit” and the “sensitivity of exosome-associated PLA2 activity to inhibitor” value [4] was “proved sensitive”. For the same compound, the “blocking of sPLA2 activity of positive control” value [5] was “blocking sPLA2 activity”.

For O=C1O/C(=C/Br)CCC1c1cccc2ccccc12 (centres unmarked) [BEL, bromoenol lactone], the “sensitivity of para-nuclear (cancer) PLA2 activities to inhibitor” value ([3]; frozen human GYN cancer tissue sections, DBPC, FIG. 1D) was “sensitive”, the “sensitivity of exosome-associated PLA2 activity to inhibitor” value [4] was “proved sensitive” and the “tumor size / tumorigenesis” value ([6]; BEL-treated vs control mice) was “reduces tumorigenesis; also recorded: significantly smaller”. The “PLA2 activity in tumors of treated mice” value ([6]; tumors from BEL-treated vs control mice, FIG. 3B) was “greatly reduced”, the “sensitivity of PLA2 activities in normal mouse tissues” value ([7]; kidney, lung, liver) was “insensitivity” and the “effect on sPLA2-like activity of normal mouse kidney tissue” value ([7]; mouse kidney, FIG. 3E) was “minimally affected”. The “effect on migration of SKOV3 cells induced by S1 fractions” value [8] was “dose-dependently reduced”, the “inhibition of EOC metastasis in combination” value [9] was “can inhibit EOC metastasis” and the “inhibition of ascites-stimulated proliferation, migration and invasion” value [10] was 20-40%.

In the case of O=C1S/C(=C\c2ccc(OCc3cccc(B(O)O)c3)cc2)C(=O)N1Cc1ccc(F)cc1 [HA130], the “effect on migration of SKOV3 cells induced by S1 fractions” value [8] is reported as “dose-dependently reduced” and the “inhibition of ascites-stimulated proliferation, migration and invasion” value [10] is reported as 10-45%.

For cyclosporine A [CsA], the “order of effectiveness in reducing PLA2 activity of CM” value [1] was “MK571>glyburide>CsA” and the “effect on PLA2 activity of CM” value [1] was “dose-responsively reduced”.

With CN(C)C(=O)CCSC(SCCC(=O)O)c1cccc(/C=C/c2ccc3ccc(Cl)cc3n2)c1 (centres unmarked) [MK571] the “order of effectiveness in reducing PLA2 activity of CM” value [1] was “MK571>glyburide>CsA”, the “effect on PLA2 activity of CM” value [1] was “dose-responsively reduced” and the “migration of SKOV3 cells to CM from inhibitor-treated macrophages” value [2] was “did not stimulate migration”.

With Cc1noc(-c2ccc(CSCCC(=O)O)cc2)c1NC(=O)OC(C)c1ccccc1Cl (centres unmarked) [Ki16425] the “proliferation of SKOV3 cells reduced by” value [11] was 12.4±7.44% and the “inhibition of migratory activity induced by S1, S3 and P3 fractions” value ([8]; SKOV3 cells pretreated with Ki16425 (10 μM), FIG. 10B) was over 70%.

With CCCCCCCC/C=C\CCCCCCCC(=O)O [oleic acid] the stimulation of migration [8] was “did not stimulate” and the stimulation of invasion [12] was “did not stimulate”.

With Lysophosphatidylinositol [LPI] the stimulation of migration [8] was “did not stimulate” and the stimulation of invasion [12] was “did not stimulate”.

In the case of CN(C)c1nc(N)c(C(=O)N=C(N)N)nc1Cl.Cl [DMA, 5,5-(N—N-Dimethyl)-amiloride hydrochloride], the “effect on PLA2 activity detected in CM” value [1] is reported as “Neither inhibitor had any significant effect”.

In the case of lysophosphatidylcholine [LPC], the “stimulation of EOC cell migration” value [13] is given as “does not stimulate”.

In the case of CCCCCCCCCCCCCCCCOC[C@@H](O)COP(=O)([O-])OCC[N+](C)(C)C [lyso-PAF, lyso-platelet activating factor], the stimulation of migration [8] is reported as “did not stimulate” and the stimulation of invasion [12] is reported as “did not stimulate”.

With methyl-β-cyclodextrin [MBC] the “effect on PLA2 activity detected in CM” value [1] was “Neither inhibitor had any significant effect”.

With O[C@@H](CS)[C@@H](O)CS [DTT] the “inhibition of ascitic PLA2 activity” value [4] was “did not inhibit”.

From patent US20130045947A1, “PLA2ACTIVITY AS A MARKER FOR OVARIAN AND OTHER GYNECOLOGIC CANCERS” (INDIANA UNIVERSITY RESEARCH AND TECHNOLOGY CORPORATION, priority 2010, published 2013)
